Where two headings read alike, the source gives them in different places.
Molecular target: SARS-CoV-2 NSP3 macrodomain (Mac1), P43 crystal form (Severe acute respiratory syndrome coronavirus 2, UniProt P0DTD1)
Type: binding
Conditions: for 1-BDC: PanDDA background density correction; for Total number of conformations: ligand conformations modeled in Mac1 crystal structure; for X-ray crystallography: Binding site: site where the ligand is bound in the X-ray crystal structure
[1] = X-ray crystal structure determined (TRUE)
[2] = crystal soak 10 mM, P43 crystals
[3] = occupancy estimate from PanDDA 1-BDC
[4] = site of ligand in X-ray crystal structure
[5] = crystal soak, soak concentration 10 mM
[6] = crystal soak, soak concentration 10 mM, TRUE = ligand hit
[7] = TRUE = crystal structure with ligand determined
[8] = crystal soak concentration 10 mM, P43 crystals
[9] = crystal soak concentration 10 mM
[10] = crystal soak concentration 20 mM
[11] = crystal soak concentration 20 mM, event 1
[12] = crystal soak concentration 20 mM, P43 crystals
[13] = site of Mac1 where ligand bound in crystal structure

Compound | 1-BDC | X-ray crystal structure [1] | Pandda run, overall: Hit [2] | Pandda run, overall: Modeled [2] | PanDDA run, DMSO background map: 1-BDC (crystal soak 10 mM) | PanDDA run, DMSO background map: Hit (crystal soak 10 mM) | Total number of conformations | 2*(1-BDC) (%) [3] | Binding site [4] | Pandda run, overall: Modeled [5] | Pandda run, overall: Hit [6] | X-ray crystallography: Binding site | PanDDA run, DMSO background map: 1-BDC (soak concentration 10 mM) | PanDDA run, DMSO background map: Hit (soak concentration 10 mM) | further results
OCC(Cc1ccc(I)cc1)Nc1ncnc2[nH]ccc12 (stereo not drawn) [AVI-3686] | 0.2 | TRUE | TRUE | TRUE | 0.2 | TRUE | 2 | 40% | Adenosine |  |  |  |  |  | 
OCC(Nc1ncnc2[nH]ccc12)c1ccco1 (stereo not drawn) [AVI-3659] | 0.16 | TRUE | TRUE | TRUE | 0.16 | TRUE | 1 | 32% | Adenosine |  |  |  |  |  | 
O=C(O)C(F)(F)F.OCC(Nc1ncnc2[nH]ccc12)C1CCCO1 (stereo not drawn) [AVI-3645] |  |  | TRUE |  | 0.22 | TRUE |  |  |  |  |  |  |  |  | Pandda run, overall: Modeling comment [2]: Weak density, not modeled; PanDDA run, TFA/DMSO background map: 1-BDC (crystal soak 10 mM): 0.12; PanDDA run, TFA/DMSO background map: Hit (crystal soak 10 mM): TRUE
O=C(O)C(F)(F)F.OC[C@H]1CC2(CN1c1ncnc3[nH]ccc13)OCCO2 [AVI-3702] | 0.21 |  |  |  |  |  | 1 | 42% |  | TRUE | TRUE | Adenosine | 0.21 | TRUE | 
OCC(Nc1ncnc2[nH]ccc12)C1CCC1 (stereo not drawn) [AVI-3638] | 0.13 | TRUE | TRUE | TRUE | 0.13 | TRUE | 1 | 26% | Adenosine |  |  |  |  |  | 
OCC(Nc1ncnc2[nH]ccc12)C1CCCC1 (stereo not drawn) [AVI-3649] | 0.16 | TRUE | TRUE | TRUE | 0.16 | TRUE | 1 | 32% | Adenosine |  |  |  |  |  | 
OCC(Nc1ncnc2[nH]ccc12)C1CCOC1 (stereo not drawn) [AVI-3679] | 0.16 | TRUE | TRUE | TRUE | 0.16 | TRUE | 1 | 32% | Adenosine |  |  |  |  |  | 
CC1(C)CCC(CO)N(c2ncnc3[nH]ccc23)C1 (stereo not drawn) [AVI-3726] | 0.17 |  |  |  |  |  | 3 | 34% |  | TRUE | TRUE | Adenosine | 0.17 | TRUE | 
O=C(O)C(F)(F)F.OCC(Nc1ncnc2[nH]ccc12)C(O)C1CCCCC1 (stereo not drawn) [AVI-3687] |  |  | TRUE |  | 0.15 | TRUE |  |  |  |  |  |  |  |  | Pandda run, overall: Modeling comment [2]: Weak density, not modeled; PanDDA run, TFA/DMSO background map: 1-BDC (crystal soak 10 mM): 0.08; PanDDA run, TFA/DMSO background map: Hit (crystal soak 10 mM): TRUE
OC1CCN(c2ncnc3[nH]ccc23)C1 (stereo not drawn) [AVI-3661] | 0.15 |  | TRUE | TRUE | 0.15 | TRUE | 1 |  |  |  |  | Adenosine |  |  | Occupancy difference (refined_occupancy - 2*(1-BDC)): 10; Refined ligand occupancy (%): 40%; 2*(1-BDC) (%) (occupancy estimate from PanDDA BDC): 30%; Refined TFA occupancy (%) (occupancy of TFA in the dataset of the named ligand): 20%
Cc1ccc(CC(CO)Nc2ncnc3[nH]ccc23)cc1C (stereo not drawn) [AVI-3684] | 0.15 | TRUE | TRUE | TRUE | 0.15 | TRUE | 2 | 30% | Adenosine |  |  |  |  |  | 
CC(C)(C)C1CCC(CO)N(c2ncnc3[nH]ccc23)C1 (stereo not drawn) [AVI-3719] | 0.08 |  |  |  |  |  | 1 | 16% |  | TRUE | TRUE | Adenosine | 0.08 | TRUE | Phe132 loop open state (TRUE = open state of Phe132 loop modeled): TRUE
CC(C)(C)[C@@H]1CCN(c2ncnc3[nH]ccc23)[C@H](CO)C1 [AVI-3722] | 0.11 |  |  |  |  |  | 1 | 22% |  | TRUE | TRUE | Adenosine | 0.11 | TRUE | 
CC1CCN(C(=O)c2ccc3c(c2)nc(CO)n3C)CC1C(=O)O (stereo not drawn) [AVI-348] | 0.25 |  |  |  |  |  | 1 | 50% |  |  |  |  |  |  | X-ray crystal structure [7]: TRUE; PanDDA run, DMSO background map: 1-BDC (crystal soak concentration 10 mM, event 1): 0.25; Pandda run, overall: Hit [8]: TRUE; Pandda run, overall: Modeled [8]: TRUE; PanDDA run, DMSO background map: Hit [9]: TRUE; PanDDA run, DMSO background map: Modeled [9]: TRUE; PanDDA run, DMSO background map: Hit [10]: TRUE; PanDDA run, DMSO background map: 1-BDC [11]: 0.34; Pandda run, overall: Hit [12]: TRUE; Pandda run, overall: Modeling comment [12]: Duplicate, not modeled; Binding site [13]: Adenosine
Cn1cc(CC(CO)Nc2ncnc3[nH]ccc23)cn1 (stereo not drawn) [AVI-3657] | 0.15 | TRUE | TRUE | TRUE | 0.15 | TRUE | 1 | 30% | Adenosine |  |  |  |  |  | 
O=C(O)C(F)(F)F.OC[C@@H](CCc1ccccc1)Nc1ncnc2[nH]ccc12 [AVI-3654] |  |  | TRUE |  | 0.14 | TRUE |  |  |  |  |  |  |  |  | Pandda run, overall: Modeling comment [2]: Weak density for phenyl, not modeled; PanDDA run, TFA/DMSO background map: 1-BDC (crystal soak 10 mM): 0.07; PanDDA run, TFA/DMSO background map: Hit (crystal soak 10 mM): TRUE
CN(C)C[C@@]1(O)CCCN(c2ncnc3[nH]ccc23)C1 [AVI-614] |  |  |  |  |  |  |  |  |  |  | TRUE |  | 0.17 | TRUE | Pandda run, overall: Modeling comment [5]: Weak density, not modeled
OCC1CCCN1c1ncnc2[nH]ccc12 (stereo not drawn) [AVI-3685] | 0.25 |  | TRUE | TRUE | 0.25 | TRUE | 1 | 50% |  |  |  | Adenosine |  |  | 
O=C(O)C(F)(F)F.OCC1C2C=CC(C2)N1c1ncnc2[nH]ccc12 (stereo not drawn) [AVI-3712] |  |  |  |  |  |  |  |  |  |  | TRUE |  | 0.15 | TRUE | Pandda run, overall: Modeling comment [5]: Weak density, not modeled; PanDDA run, TFA/DMSO background map: 1-BDC (soak concentration 10 mM): 0.05; PanDDA run, TFA/DMSO background map: Hit (soak concentration 10 mM): TRUE
OCC(O)C1CCCN1c1ncnc2[nH]ccc12 (stereo not drawn) [AVI-3701] | 0.18 |  |  |  |  |  | 1 | 36% |  | TRUE | TRUE | Adenosine | 0.18 | TRUE | 
OCC(Cc1ccoc1)Nc1ncnc2[nH]ccc12 (stereo not drawn) [AVI-3705] | 0.21 | TRUE |  |  |  |  | 1 | 42% | Adenosine | TRUE | TRUE |  | 0.21 | TRUE | 
C[C@@H](O)[C@H](CO)Nc1ncnc2[nH]ccc12.O=C(O)C(F)(F)F [AVI-3730] | 0.14 | TRUE |  |  |  |  | 1 | 28% | Adenosine | TRUE | TRUE |  | 0.14 | TRUE | 
O=C(O)C1CCCN1S(=O)(=O)c1cccc2nsnc12 (stereo not drawn) [AVI-2] | 0.2 |  |  |  |  |  | 1 | 40% |  |  |  |  |  |  | X-ray crystal structure [7]: TRUE; PanDDA run, DMSO background map: Hit [10]: TRUE; PanDDA run, DMSO background map: 1-BDC [11]: 0.22; Pandda run, overall: Hit [12]: TRUE; Pandda run, overall: Modeling comment [12]: Duplicate, not modeled; Pandda run, overall: Modeling comment [5]: DMSO; Pandda run, overall: Hit (crystal soak, soak concentration 10 mM, P43 crystals, TRUE = ligand-binding event identified): TRUE; PanDDA run, DMSO background map: Hit [5]: TRUE; PanDDA run, DMSO background map: Modeled [5]: TRUE; PanDDA run, DMSO background map: 1-BDC (crystal soak, soak concentration 10 mM, event 1): 0.2; Pandda run, overall: Modeled (crystal soak, soak concentration 10 mM, TRUE = ligand modeled): TRUE; Binding site [13]: Adenosine

Source: paper doi:10.1101/2024.08.25.609621 (bioRxiv, 2024)
